ChEMBL document CHEMBL5674860, “Optimized Dual-Glo Assay to identify co-culture-induced drug vulnerabilities in 3D CRC models” (2024)

Tests used:
Format in all cases: functional, Homo sapiens
Design in all cases: dose or concentration left out as unconfirmed
[1] = test system: Colon cancer organoid; experiment: Optimized Dual-Glo assay to identify co-culture induced drug vulnerabilities using donated chemical probes and chemogenomics kinase set in O06 CRC organoid and F06 CAF mono and co-culture. […] Cell viability is reported both mono and co-culture models.
[2] = test system: Colon cancer organoid; experiment: Optimized Dual-Glo assay to identify co-culture induced drug vulnerabilities using donated chemical probes and chemogenomics kinase set in O20 CRC organoid and F20 CAF mono and co-culture. […] Cell viability is reported both mono and co-culture models.
[3] = test system: Colon cancer organoid; experiment: Optimized Dual-Glo assay to identify co-culture induced drug vulnerabilities using donated chemical probes and chemogenomics kinase set in O14 CRC organoid and F14 CAF mono and co-culture. […] Cell viability is reported both mono and co-culture models.
[4] = Culture type Co-Culture, Transduced with Lucferase2-P2A-EGFP lentivirus
[5] = Culture type Co-Culture, Transduced with Renilla-dsRed lentivirus
[6] = Culture type Mono-Culture, Transduced with Lucferase2-P2A-EGFP lentivirus
[7] = Culture type Mono-Culture, Transduced with Renilla-dsRed lentivirus

## CC(C)N(CCCNC(=O)Nc1ccc(C(C)(C)C)cc1)C[C@H]1O[C@@H](n2cc(Br)c3c(N)ncnc32)[C@H](O)[C@@H]1O
[1]; [4]
  Cell Viability: 62.4885%
[1]; [5]
  Cell Viability: 97.8527%
[1]; [6]
  Cell Viability: 76.7332%
[1]; [7]
  Cell Viability: 88.3272%
[2]; [4]
  Cell Viability: 59.1388%
[2]; [5]
  Cell Viability: 110.156%
[2]; [6]
  Cell Viability: 82.1777%
[2]; [7]
  Cell Viability: 84.781%
[3]; [4]
  Cell Viability: 69.7796%
[3]; [5]
  Cell Viability: 119.823%
[3]; [6]
  Cell Viability: 60.0766%
[3]; [7]
  Cell Viability: 78.3641%

## O=C(O)c1ccc(-c2c[nH]c3ncc(-c4ccccc4)cc23)cc1C1CCCC1 [GSK-650394]
[1]; [4]
  Cell Viability: 150.298%
[1]; [5]
  Cell Viability: 125.274%
[1]; [6]
  Cell Viability: 142.061%
[1]; [7]
  Cell Viability: 114.363%
[2]; [4]
  Cell Viability: 93.9419%
[2]; [5]
  Cell Viability: 129.576%
[2]; [6]
  Cell Viability: 65.3151%
[2]; [7]
  Cell Viability: 121.845%
[3]; [4]
  Cell Viability: 84.2987%
[3]; [5]
  Cell Viability: 94.4983%
[3]; [6]
  Cell Viability: 153.467%
[3]; [7]
  Cell Viability: 103.115%

## Cc1sc2c(c1C)C(c1ccc(Cl)cc1)=N[C@H](CC(=O)OC(C)(C)C)c1nnc(C)n1-2
[1]; [4]
  Cell Viability: 107.283%
[1]; [5]
  Cell Viability: 109.974%
[1]; [6]
  Cell Viability: 69.4816%
[1]; [7]
  Cell Viability: 97.8447%
[2]; [4]
  Cell Viability: 98.7176%
[2]; [5]
  Cell Viability: 113.657%
[2]; [6]
  Cell Viability: 118.396%
[2]; [7]
  Cell Viability: 90.6965%
[3]; [4]
  Cell Viability: 111.301%
[3]; [5]
  Cell Viability: 136.501%
[3]; [6]
  Cell Viability: 108.464%
[3]; [7]
  Cell Viability: 107.072%

## CCOC(=O)Nc1cc(-c2ccc(C)c(NS(C)(=O)=O)c2)nn2c(C)nnc12
[1]; [4]
  Cell Viability: 112.605%
[1]; [5]
  Cell Viability: 266.102%
[1]; [6]
  Cell Viability: 81.8905%
[1]; [7]
  Cell Viability: 215.442%
[2]; [4]
  Cell Viability: 38.58%
[2]; [5]
  Cell Viability: 177.965%
[2]; [6]
  Cell Viability: 39.5437%
[2]; [7]
  Cell Viability: 109.867%
[3]; [4]
  Cell Viability: 71.1092%
[3]; [5]
  Cell Viability: 228.167%
[3]; [6]
  Cell Viability: 66.8371%
[3]; [7]
  Cell Viability: 176.186%

## CN1CCN(c2ccnc(NCCc3ccccc3)n2)CC1 [TP-040n]
[1]; [4]
  Cell Viability: 79.4477%
[1]; [5]
  Cell Viability: 81.2059%
[1]; [6]
  Cell Viability: 106.155%
[1]; [7]
  Cell Viability: 134.56%
[2]; [4]
  Cell Viability: 67.1911%
[2]; [5]
  Cell Viability: 97.5889%
[2]; [6]
  Cell Viability: 115.175%
[2]; [7]
  Cell Viability: 123.14%
[3]; [4]
  Cell Viability: 93.1561%
[3]; [5]
  Cell Viability: 99.6193%
[3]; [6]
  Cell Viability: 147.697%
[3]; [7]
  Cell Viability: 101.671%

## COc1ccc(COc2ccc(Cc3cnc(N)nc3N)cc2OC)cc1 [GW632580X]
[1]; [4]
  Cell Viability: 84.8428%
[1]; [5]
  Cell Viability: 83.7807%
[1]; [6]
  Cell Viability: 109.175%
[1]; [7]
  Cell Viability: 109.596%
[2]; [4]
  Cell Viability: 200.024%
[2]; [5]
  Cell Viability: 84.9331%
[2]; [6]
  Cell Viability: 115.095%
[2]; [7]
  Cell Viability: 88.8877%
[3]; [4]
  Cell Viability: 102.637%
[3]; [5]
  Cell Viability: 115.835%
[3]; [6]
  Cell Viability: 144.397%
[3]; [7]
  Cell Viability: 94.931%

## O=C(CCCCCCNC(=O)c1cnc(N(c2ccccc2)c2ccccc2)nc1)NO [RICOLINOSTAT]
[1]; [4]
  Cell Viability: 80.064%
[1]; [5]
  Cell Viability: 143.43%
[1]; [6]
  Cell Viability: 66.4985%
[1]; [7]
  Cell Viability: 158.366%
[2]; [4]
  Cell Viability: 158.742%
[2]; [5]
  Cell Viability: 130.22%
[2]; [6]
  Cell Viability: 89.6658%
[2]; [7]
  Cell Viability: 107.525%
[3]; [4]
  Cell Viability: 162.049%
[3]; [5]
  Cell Viability: 119.991%
[3]; [6]
  Cell Viability: 164.32%
[3]; [7]
  Cell Viability: 101.457%

## O=C(NOCC1CC1)c1ccc(F)c(F)c1Nc1ccc(I)cc1Cl [CI-1040]
[1]; [4]
  Cell Viability: 38.2974%
[1]; [5]
  Cell Viability: 73.8424%
[1]; [6]
  Cell Viability: 7.023%
[1]; [7]
  Cell Viability: 67.7326%
[2]; [4]
  Cell Viability: 43.8229%
[2]; [5]
  Cell Viability: 195.336%
[2]; [6]
  Cell Viability: 27.7103%
[2]; [7]
  Cell Viability: 59.0843%
[3]; [4]
  Cell Viability: 16.7737%
[3]; [5]
  Cell Viability: 86.2158%
[3]; [6]
  Cell Viability: 10.461%
[3]; [7]
  Cell Viability: 42.9063%

## C[C@H](NC(=O)c1cnc2n1[C@](C)(Cc1ccc(C#N)cc1)C(=O)N2c1cc(Cl)c(F)c(Cl)c1)C(=O)NC1(c2ccccn2)CC1 [BI 1950]
[1]; [4]
  Cell Viability: 123.241%
[1]; [5]
  Cell Viability: 151.567%
[1]; [6]
  Cell Viability: 111.279%
[1]; [7]
  Cell Viability: 104.666%
[2]; [4]
  Cell Viability: 121.807%
[2]; [5]
  Cell Viability: 97.0159%
[2]; [6]
  Cell Viability: 112.646%
[2]; [7]
  Cell Viability: 94.255%
[3]; [4]
  Cell Viability: 114.581%
[3]; [5]
  Cell Viability: 100.802%
[3]; [6]
  Cell Viability: 131.753%
[3]; [7]
  Cell Viability: 112.137%

## O=C(NNS(=O)(=O)c1ccccc1)c1cc(-c2ccnnc2)ccc1F [WM-2474]
[1]; [4]
  Cell Viability: 92.1572%
[1]; [5]
  Cell Viability: 93.3483%
[1]; [6]
  Cell Viability: 72.4696%
[1]; [7]
  Cell Viability: 112.209%
[2]; [4]
  Cell Viability: 104.784%
[2]; [5]
  Cell Viability: 126.08%
[2]; [6]
  Cell Viability: 94.4259%
[2]; [7]
  Cell Viability: 109.751%
[3]; [4]
  Cell Viability: 77.1469%
[3]; [5]
  Cell Viability: 98.8333%
[3]; [6]
  Cell Viability: 101.234%
[3]; [7]
  Cell Viability: 91.9977%

## CC(=O)Nc1c(C(C)=O)c(=O)n(C)c2nc(-c3ccc(Cl)cc3Cl)c(-c3ccc(Cl)cc3)cc12 [NAPHTHYRIDINONE]
[1]; [4]
  Cell Viability: 144.905%
[1]; [5]
  Cell Viability: 170.157%
[1]; [6]
  Cell Viability: 100.862%
[1]; [7]
  Cell Viability: 101.001%
[2]; [4]
  Cell Viability: 105.882%
[2]; [5]
  Cell Viability: 98.6055%
[2]; [6]
  Cell Viability: 84.0394%
[2]; [7]
  Cell Viability: 82.777%
[3]; [4]
  Cell Viability: 70.6421%
[3]; [5]
  Cell Viability: 119.606%
[3]; [6]
  Cell Viability: 87.1663%
[3]; [7]
  Cell Viability: 99.5027%

## CN(C)CCCOc1ccc(-c2cc(NCCCn3cccn3)nc(S(C)(=O)=O)n2)cc1
[1]; [4]
  Cell Viability: 126.468%
[1]; [5]
  Cell Viability: 129.443%
[1]; [6]
  Cell Viability: 108.628%
[1]; [7]
  Cell Viability: 116.281%
[2]; [4]
  Cell Viability: 144.301%
[2]; [5]
  Cell Viability: 126.832%
[2]; [6]
  Cell Viability: 110.606%
[2]; [7]
  Cell Viability: 92.2355%
[3]; [4]
  Cell Viability: 98.5657%
[3]; [5]
  Cell Viability: 111.103%
[3]; [6]
  Cell Viability: 109.089%
[3]; [7]
  Cell Viability: 94.6282%

## COc1cc2c(NC3CCN(C(C)C)CC3)nc(N3CCC(F)(F)CC3)nc2cc1OCCCN1CCCC1
[1]; [4]
  Cell Viability: 88.0521%
[1]; [5]
  Cell Viability: 104.162%
[1]; [6]
  Cell Viability: 44.5913%
[1]; [7]
  Cell Viability: 47.5732%
[2]; [4]
  Cell Viability: 136.034%
[2]; [5]
  Cell Viability: 132.743%
[2]; [6]
  Cell Viability: 70.3827%
[2]; [7]
  Cell Viability: 53.0002%
[3]; [4]
  Cell Viability: 56.1565%
[3]; [5]
  Cell Viability: 72.4133%
[3]; [6]
  Cell Viability: 84.8802%
[3]; [7]
  Cell Viability: 67.5673%

## CC[C@@H]1CN(C(=O)NCC(F)(F)F)C[C@@H]1c1cnc2cnc3[nH]ccc3n12 [UPADACITINIB]
[1]; [4]
  Cell Viability: 104.182%
[1]; [5]
  Cell Viability: 86.3482%
[1]; [6]
  Cell Viability: 126.811%
[1]; [7]
  Cell Viability: 90.1732%
[2]; [4]
  Cell Viability: 123.754%
[2]; [5]
  Cell Viability: 83.5298%
[2]; [6]
  Cell Viability: 89.3672%
[2]; [7]
  Cell Viability: 88.6624%
[3]; [4]
  Cell Viability: 168.996%
[3]; [5]
  Cell Viability: 89.117%
[3]; [6]
  Cell Viability: 123.387%
[3]; [7]
  Cell Viability: 83.332%
